Reference: publication PMC12797170, “Potent Competitive Inhibitors of Ecto-5′-nucleotidase (CD73) based on 6‑(Het)aryl-7-deazapurine Ribonucleoside 5′‑O‑Bisphosphonates” (ACS Pharmacology & Translational Science, 2025)
Converted amounts (≈) assume the structure as drawn.

Tests used:
[1] = Plasma protein binding, mouse plasma; format: in vitro ADME; details: mouse, plasma, mouse plasma protein binding; read-out: PPB (m) (converted)
Experimental: (§1) Plasma protein binding of the investigated compounds was determined using equilibrium dialysis in single-use Rapid Equilibrium Dialysis devices with an 8 kDa molecular weight cutoff (Thermo Fisher Scientific), following the manufacturer’s protocol. In brief, 50 μL of undiluted human plasma (Biowest), spiked with the test compound at a final concentration of 100 μM, was added to the sample chamber, while 300 μL of phosphate-buffered saline (PBS) was placed in the buffer chamber. Devices were incubated for 4 h at 37 °C with gentle shaking.
(§2) After dialysis, 7.5 μL aliquots from both the plasma and buffer chambers were transferred directly into wells of a 384-well plate. To equalize the matrices for downstream processing, 7.5 μL of PBS was added to each plasma aliquot, and 7.5 μL of plasma was added to each buffer aliquot. Proteins were precipitated by adding four volumes of ice-cold methanol to each well, followed by thorough mixing and incubation at – 20 °C for 30 min. Plates were then stored overnight at 8 °C. Prior to analysis, the plate was centrifuged at 2,000 × g for 20 min at 8 °C. […] The fraction of unbound compound was calculated using the following equations: %Free=c(bufferchamber)/c(plasmachamber)*100% %Bound=100%−%Free

in vitro [2] = details: human, plasma
in vitro [3] = details: mouse, plasma
[4] = Kinetic solubility in PBS; format: physicochemical; details: phosphate-buffered saline, pH 7.4, aqueous buffer, kinetic from dmso stock
Experimental: Test compounds were prepared as 10 mM stock solutions in DMSO and diluted in phosphate-buffered saline (PBS, pH 7.4) to a 100 μM solution, which was then aliquoted in duplicate. The duplicate samples were incubated in Multiscreen PCF Filter Plates (Merck Millipore) with sealed bottom at room temperature on a shaker for 2 h to allow equilibration. Following incubation, the samples were centrifuged into nonsterile, flat-bottom 96-well plates at 2,200 RCF for 12 min. Supernatants were then diluted 1:99 in a solution of 50% acetonitrile containing 0.1% DMSO. The diluted samples were transferred to 384-well Echo plates, which contained prespotted calibration standards prepared by Echo transfer of 10 mM and 1 mM DMSO stock solutions, resulting in calibration points ranging from 0.05 to 4 μM. Samples and standards were subsequently analyzed by Echo-MS.

[5] = Microsomal stability assay, human liver microsomes; format: in vitro ADME; details: for Mics (hu) comp remaining 60 min: 10 μM; for microsomal CLint at 10 µM: pooled liver microsomes, pH 7.4, read-out: Mics (hu) CLint
[6] = molecular target: T1, recombinant human CD73 (hCD73) (Homo sapiens, UniProt P21589); experiment: CD73 activity assay on recombinant human CD73; format: biochemical; details: ΔGexp = RT ln Ki
T1 sequence (P21589 27-574): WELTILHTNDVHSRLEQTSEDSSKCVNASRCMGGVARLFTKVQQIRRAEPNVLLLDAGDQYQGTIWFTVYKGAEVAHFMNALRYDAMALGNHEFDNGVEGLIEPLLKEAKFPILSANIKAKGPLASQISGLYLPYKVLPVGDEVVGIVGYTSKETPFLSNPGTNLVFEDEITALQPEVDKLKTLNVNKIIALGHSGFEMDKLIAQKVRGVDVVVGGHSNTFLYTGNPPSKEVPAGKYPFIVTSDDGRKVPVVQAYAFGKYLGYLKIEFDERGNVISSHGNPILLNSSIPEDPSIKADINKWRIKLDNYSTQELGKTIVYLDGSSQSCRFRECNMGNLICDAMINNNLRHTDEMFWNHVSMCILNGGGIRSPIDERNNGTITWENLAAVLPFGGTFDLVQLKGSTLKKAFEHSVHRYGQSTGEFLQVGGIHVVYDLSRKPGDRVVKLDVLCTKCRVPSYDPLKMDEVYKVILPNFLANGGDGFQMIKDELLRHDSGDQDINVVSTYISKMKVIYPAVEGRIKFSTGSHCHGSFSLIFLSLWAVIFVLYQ

[7] = Plasma protein binding, equilibrium dialysis, human plasma; format: in vitro ADME; details: undiluted plasma
Experimental: as §1, §2

[8] = Microsomal stability assay, mouse liver microsomes; format: in vitro ADME; details: for Mics (m) comp remaining 60 min: 10 μM; for microsomal CLint at 10 µM: pooled liver microsomes, pH 7.4, read-out: Mics (m) CLint
[9] = In vivo pharmacokinetic study, intravenous; design: species or system male CD-1 mice; details: plasma, 1 mg/kg, intravenous; for half-life: male, CD-1, mouse, iv, footnote: t1/2 stability in plasma, text: half-life in mouse PK; for clearance: mouse, male CD-1 mice, single dose, read-out: Cl (obs), observed clearance
Experimental: The pharmacokinetic study was performed by Bienta (Enamine Biology Services) using male CD-1 mice (3 animals, 9 weeks old, body weight ranging from 29.2 to 33.7 g) following intravenous administration. Levels of the test compound were determined by LC-MS/MS in blood plasma over time (seven sampling time points: 5, 15, 30, 60, 120, 240, and 480 min) after a single dose.
Animal treatment and samples preparation were conducted by the Animal Laboratory personnel at Enamine/Bienta.

HL-60 = experiment: In vitro cytotoxic activity; format: cell-based; details: Homo sapiens
Experimental: (§3) All the compounds were also tested for their in vitro cytotoxic activity on a small panel of four cancer cell lines (CCRF-CEM, HepG2, HeLa S3, HL-60) and nonmalignant human dermal fibroblasts (NHDF).

CCRF-CEM = experiment: In vitro cytotoxic activity; format: cell-based; details: Homo sapiens
Experimental: as §3

HepG2 = experiment: In vitro cytotoxic activity; format: cell-based; details: Homo sapiens
Experimental: as §3

HeLa S3 = experiment: In vitro cytotoxic activity; format: cell-based; details: Homo sapiens
Experimental: as §3

[10] = test system: nonmalignant human dermal fibroblasts (NHDF); experiment: In vitro cytotoxic activity; format: cell-based
Experimental: as §3

[11] = Table 6, human plasma, read-out: fup, fraction unbound in human plasma
[12] = human plasma protein binding, read-out: PPB (hu) (converted)

Row | Compound | fraction unbound at 4 h, 100 µM [1] | half-life at 10 µM (in vitro [2]) [h] | half-life at 10 µM (in vitro [3]) [h] | solubility at 2 h [4] [µM] | Mics (hu) comp remaining 60 min [5] [%] | dG_exp, experimental binding free energy [6] | fraction unbound at 4 h, 100 µM [7, 11] | Mics (m) comp remaining 60 min [8] [%] | half-life [9] [h] | clearance [9] [mL/min/kg] | microsomal CLint at 10 µM [5] [µL/min/mg] | fraction unbound at 4 h, 100 µM [7, 12] | microsomal CLint at 10 µM [8] [µL/min/mg] | IC50 (HL-60) [µM] | IC50 (CCRF-CEM) [µM] | IC50 (HepG2) [µM] | IC50 (HeLa S3) [µM] | IC50 [10] [µM]
1 | O=P(O)(O)CP(=O)(O)OC[C@H]1O[C@@H](n2ccc3c(-c4ccccc4)ncnc32)[C@@H](F)[C@@H]1O [34A.5, [(5-{[4-Phenyl-7H-pyrrolo[2,3-d]pyrimidin-7-yl]-2-deoxy-2-fluoro-β-D-arabinosyl}oxy)phosphonomethyl]phosphonic Acid] | 0.2 | > 2 | > 2 | 245 (≈ 119 µg/mL) | 93 | –11.2 kcal/mol | 0.022 | 97 | 5.1 | 3.3 | – | – | – | – | – | – | – | –
2 | O=P(O)(O)CP(=O)(O)OC[C@H]1O[C@@H](n2cnc3c(-c4cccc5ccccc45)ncnc32)[C@H](O)[C@@H]1O [31A.6, [(5-{[6-(Naphth-1-yl)-9H-purin-9-yl]-β-D-ribofuranosyl}oxy)phosphonomethyl]phosphonic Acid] | 0.628 | > 2 | > 2 | 87 (≈ 46.7 µg/mL) | 121 | – | – | 108 | – | – | < 1 | 0.093 | < 1 | > 10 | > 10 | > 10 | > 10 | > 10
3 | O=P(O)(O)CP(=O)(O)OC[C@H]1O[C@@H](n2ccc3c(-c4ccc5ccccc5c4)ncnc32)[C@@H](F)[C@@H]1O [34A.7] | 0.022 | > 2 | > 2 | 82 (≈ 44.1 µg/mL) | 94 | –11.8 kcal/mol | 0.002 | 90 | 3.13 | 7.2 | – | – | – | – | – | – | – | –
4 | O=P(O)(O)CP(=O)(O)OC[C@H]1O[C@@H](n2ccc3c(-c4cccc5ccccc45)ncnc32)[C@@H](F)[C@@H]1O [34A.6] | 0.065 | > 2 | > 2 | 167 (≈ 89.7 µg/mL) | 97 | –11.8 kcal/mol | 0.017 | 94 | 1.3 | 19 | – | – | – | – | – | – | – | –
5 | O=P(O)(O)CP(=O)(O)OC[C@H]1O[C@@H](n2ccc3c(-c4ccc(-c5ccccc5)cc4)ncnc32)[C@H](O)[C@@H]1O [4A.9] | 0.144 | > 2 | > 2 | 64 (≈ 35.9 µg/mL) | – | – | – | – | – | – | – | 0.011 | – | > 10 | > 10 | > 10 | > 10 | > 10
6 | O=P(O)(O)CP(=O)(O)OC[C@H]1O[C@@H](n2ccc3c(-c4ccncc4)ncnc32)[C@H](O)[C@@H]1O [4A.16] | 0.833 | > 2 | > 2 | 79 (≈ 38.4 µg/mL) | 94 | – | – | 80 | – | – | 3 | 0.304 | 9 | > 10 | > 10 | > 10 | > 10 | > 10

Now from value to molecule, other results behind:

Row | fraction unbound at 4 h, 100 µM [1] | half-life at 10 µM (in vitro [2]) [h] | half-life at 10 µM (in vitro [3]) [h] | solubility at 2 h [4] [µM] | Mics (hu) comp remaining 60 min [5] [%] | dG_exp, experimental binding free energy [6] | fraction unbound at 4 h, 100 µM [7, 11] | Mics (m) comp remaining 60 min [8] [%] | half-life [9] [h] | clearance [9] [mL/min/kg] | microsomal CLint at 10 µM [5] [µL/min/mg] | fraction unbound at 4 h, 100 µM [7, 12] | microsomal CLint at 10 µM [8] [µL/min/mg] | Compound | IC50 (HL-60) [µM] | IC50 (CCRF-CEM) [µM] | IC50 (HepG2) [µM] | IC50 (HeLa S3) [µM] | IC50 [10] [µM]
7 | 0.253 | > 2 | > 2 | 73 (≈ 39.5 µg/mL) | 90 | –11.8 kcal/mol | 0.05 | 89 | – | – | – | – | – | O=P(O)(O)CP(=O)(O)OC[C@H]1O[C@@H](n2ccc3c(-c4ccc5c(c4)CCCC5)ncnc32)[C@@H](F)[C@@H]1O [34A.17] | – | – | – | – | –
8 | 0.058 | > 2 | > 2 | 100 (≈ 53.8 µg/mL) | 102 | –12.5 kcal/mol | 0.014 | 101 | 1.32 | 18 | – | – | – | O=P(O)(O)CP(=O)(O)OC[C@H]1O[C@@H](n2ccc3c(-c4ccnc5ccccc45)ncnc32)[C@@H](F)[C@@H]1O [34A.28] | – | – | – | – | –
9 | 0.055 | > 2 | > 2 | 75 (≈ 40.6 µg/mL) | 96 | –12.4 kcal/mol | 0.007 | 115 | – | – | – | – | – | O=P(O)(O)CP(=O)(O)OC[C@H]1O[C@@H](n2ccc3c(-c4cccc5c4CCCC5)ncnc32)[C@@H](F)[C@@H]1O [34A.12] | – | – | – | – | –
10 | 0.017 | > 2 | > 2 | 100 (≈ 55.5 µg/mL) | 98 | –12.3 kcal/mol | 0.001 | 116 | – | – | – | – | – | O=P(O)(O)CP(=O)(O)OC[C@H]1O[C@@H](n2ccc3c(-c4ccc(F)c5ccccc45)ncnc32)[C@@H](F)[C@@H]1O [34A.23] | – | – | – | – | –
